According to PubChem BioAssay AID1963448 (Molecular Pharmacology Branch, DTP, NCI, 2024):

System: 616215-338-R-J1-PDC complex spheroid growth, % test/control
Experiment: Anticancer human tumor 616215-338-R-J1-PDC patient-derived colon adenocarcinoma cell line growth inhibition [Asc]
Conditions: for IC50: curve of first compound; for viability, T/C: stronger effect = lower value
Procedure, shortened: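 Stromal components (HUVEC and hMSC) are co-assembled with the cancer cells into multicellular spheroids. Drugs are then added singly or paired, at concentrations falling by half-log increments from a clinically achievable maximum, capped at 10 microM without known Cmax.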
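Further: spheroids exposed to agents for seven days before readout.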
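Wherever viability, T/C is given: 100% = DMSO vehicle control viability.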

IC50 (second compound 0.00316 µM): 261 nM
IC50 (second compound 0.01 µM): 298 nM
IC50 (second compound 0.0316 µM): 586 nM
IC50 (second compound 0.1 µM): 441 nM
IC50 (second compound 0.316 µM): 386 nM
IC50 (second compound 1 µM): 555 nM
SMILES: CCN1CCN(Cc2ccc(Nc3ncc(F)c(-c4cc(F)c5nc(C)n(C(C)C)c5c4)n3)nc2)CC1 + CNC(C)C(=O)NC1CN(S(=O)(=O)c2cccc(S(=O)(=O)N3CCC4CCC(C(=O)NC(c5ccccc5)c5ccccc5)N4C(=O)C(NC(=O)C(C)NC)C3)c2)CCC2CCC(C(=O)NC(c3ccccc3)c3ccccc3)N2C1=O
viability, T/C (second compound 0.00316 µM, first compound 0.00316 µM): 105%
viability, T/C (second compound 0.00316 µM, first compound 0.01 µM): 105%
viability, T/C (second compound 0.00316 µM, first compound 0.0316 µM): 92.1%
viability, T/C (second compound 0.00316 µM, first compound 0.1 µM): 92.4%
viability, T/C (second compound 0.00316 µM, first compound 0.316 µM): 41.5%
viability, T/C (second compound 0.00316 µM, first compound 1 µM): 16%
viability, T/C (second compound 0.01 µM, first compound 0.00316 µM): 106%
viability, T/C (second compound 0.01 µM, first compound 0.01 µM): 112%
viability, T/C (second compound 0.01 µM, first compound 0.0316 µM): 99.2%
viability, T/C (second compound 0.01 µM, first compound 0.1 µM): 60.1%
viability, T/C (second compound 0.01 µM, first compound 0.316 µM): 58%
viability, T/C (second compound 0.01 µM, first compound 1 µM): 18.8%
viability, T/C (second compound 0.0316 µM, first compound 0.00316 µM): 100%
viability, T/C (second compound 0.0316 µM, first compound 0.01 µM): 114%
viability, T/C (second compound 0.0316 µM, first compound 0.0316 µM): 90.9%
viability, T/C (second compound 0.0316 µM, first compound 0.1 µM): 90%
viability, T/C (second compound 0.0316 µM, first compound 0.316 µM): 87.9%
viability, T/C (second compound 0.0316 µM, first compound 1 µM): 19.5%
viability, T/C (second compound 0.1 µM, first compound 0.00316 µM): 107%
viability, T/C (second compound 0.1 µM, first compound 0.01 µM): 105%
viability, T/C (second compound 0.1 µM, first compound 0.0316 µM): 102%
viability, T/C (second compound 0.1 µM, first compound 0.1 µM): 67.7%
viability, T/C (second compound 0.1 µM, first compound 0.316 µM): 73.3%
viability, T/C (second compound 0.1 µM, first compound 1 µM): 18.9%
viability, T/C (second compound 0.316 µM, first compound 0.00316 µM): 111%
viability, T/C (second compound 0.316 µM, first compound 0.01 µM): 107%
viability, T/C (second compound 0.316 µM, first compound 0.0316 µM): 90.4%
viability, T/C (second compound 0.316 µM, first compound 0.1 µM): 61.8%
viability, T/C (second compound 0.316 µM, first compound 0.316 µM): 61.3%
viability, T/C (second compound 0.316 µM, first compound 1 µM): 33.3%
viability, T/C (second compound 1 µM, first compound 0.00316 µM): 100%
viability, T/C (second compound 1 µM, first compound 0.01 µM): 111%
viability, T/C (second compound 1 µM, first compound 0.0316 µM): 101%
viability, T/C (second compound 1 µM, first compound 0.1 µM): 101%
viability, T/C (second compound 1 µM, first compound 0.316 µM): 67.8%
viability, T/C (second compound 1 µM, first compound 1 µM): 31.3%
